# Data reported in ChEMBL document CHEMBL1201862, “PubChem BioAssay data set” (2004).
#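 96-well plates; 48 h exposure; 5 concentrations. Endpoints by linear interpolation between flanking doses. Not reached: highest tested concentration assigned. GI50 marks 50% less growth.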 Active and inactive are the calls of the source. Rule as the data show it: active = GI50 up to about 1.1 µM and inactive = higher.
# Experiments:
# Assay in all cases: NCI anticancer screen, dose series, 48 h
# OVCAR-4 = tested on: OVCAR-4
# OVCAR-5 = tested on: OVCAR-5
# NCI/ADR-RES = tested on: NCI/ADR-RES
# CCRF-CEM = tested on: CCRF-CEM
# T47D = tested on: T47D
# SF-295 = tested on: SF-295
# K562 = tested on: K562
# LOX IMVI = tested on: LOX IMVI
# MDA-N = tested on: MDA-N
# HCC 2998 = tested on: HCC 2998
# SR = tested on: SR
# PC-3 = tested on: PC-3
# RPMI-8226 = tested on: RPMI-8226
# RXF 393 = tested on: RXF 393
# COLO 205 = tested on: COLO 205
# SNB-75 = tested on: SNB-75
# M14 = tested on: M14
# SK-MEL-5 = tested on: SK-MEL-5
# Malme-3M = tested on: Malme-3M
SMILES,GI50 (OVCAR-4),GI50 (OVCAR-5),GI50 (NCI/ADR-RES),GI50 (CCRF-CEM),GI50 (T47D),GI50 (SF-295),GI50 (K562),GI50 (LOX IMVI),GI50 (MDA-N),GI50 (HCC 2998),GI50 (SR),GI50 (PC-3),GI50 (RPMI-8226),GI50 (RXF 393),GI50 (COLO 205),GI50 (SNB-75),GI50 (M14),GI50 (SK-MEL-5),GI50 (Malme-3M)
CC1=C(C(=O)NCC(C)O)CC(C(=O)NCC(C)O)=C(C)N1 (stereo not given),> 100 µM (inactive),> 100 µM (inactive),> 100 µM (inactive),> 100 µM (inactive),> 100 µM (inactive),> 100 µM (inactive),> 100 µM (inactive),> 100 µM (inactive),> 100 µM (inactive),> 100 µM (inactive),> 100 µM (inactive),> 100 µM (inactive),> 100 µM (inactive),> 100 µM (inactive),> 100 µM (inactive),72.9 µM (inactive),> 100 µM (inactive),> 100 µM (inactive),–
COc1cccc(-c2cc(O)c3cc(Cl)cnc3n2)c1,6.17 µM (inactive),1.33 µM (inactive),0.0341 µM (active),0.0484 µM (active),30.5 µM (inactive),0.0687 µM (active),0.0419 µM (active),0.0687 µM (active),0.0144 µM (active),0.164 µM (active),0.0292 µM (active),0.065 µM (active),0.0378 µM (active),0.0698 µM (active),0.113 µM (active),33.5 µM (inactive),0.0443 µM (active),0.0495 µM (active),2.25 µM (inactive)
COC1=CCC2=C(CCN(C(=O)C3CCC3)C2Cc2ccc(OC)c(O)c2)C1 (stereo not given),23 µM (inactive),29.5 µM (inactive),9.82 µM (inactive),21.8 µM (inactive),19.4 µM (inactive),15.9 µM (inactive),4.45 µM (inactive),36.6 µM (inactive),2.7 µM (inactive),15.1 µM (inactive),5.69 µM (inactive),23.6 µM (inactive),29.4 µM (inactive),4.68 µM (inactive),16 µM (inactive),10.7 µM (inactive),16.9 µM (inactive),8.34 µM (inactive),26.6 µM (inactive)
NC(Cc1c[nH]c(I)n1)C(=O)O (stereo not given),49.9 µM (inactive),> 100 µM (inactive),37.1 µM (inactive),22.1 µM (inactive),90.6 µM (inactive),> 100 µM (inactive),53.6 µM (inactive),> 100 µM (inactive),> 100 µM (inactive),34.9 µM (inactive),34.4 µM (inactive),> 100 µM (inactive),> 100 µM (inactive),45.2 µM (inactive),> 100 µM (inactive),25.6 µM (inactive),> 100 µM (inactive),82.2 µM (inactive),17.7 µM (inactive)
O=C(O)C1CSC2(CCCN(Cc3ccccc3)C2)N1 (stereo not given),> 100 µM (inactive),> 100 µM (inactive),> 100 µM (inactive),23.4 µM (inactive),> 100 µM (inactive),> 100 µM (inactive),> 28.8 µM (inactive),> 100 µM (inactive),> 100 µM (inactive),> 100 µM (inactive),4.81 µM (inactive),> 100 µM (inactive),–,> 100 µM (inactive),> 100 µM (inactive),> 100 µM (inactive),> 100 µM (inactive),> 100 µM (inactive),> 100 µM (inactive)
O=[N+]([O-])c1ccc(Cl)cc1N/N=C/c1cccs1,> 100 µM (inactive),–,> 100 µM (inactive),> 100 µM (inactive),26.4 µM (inactive),> 100 µM (inactive),> 100 µM (inactive),–,> 100 µM (inactive),> 100 µM (inactive),> 100 µM (inactive),> 100 µM (inactive),> 100 µM (inactive),> 100 µM (inactive),> 100 µM (inactive),> 100 µM (inactive),> 100 µM (inactive),> 100 µM (inactive),–
COc1ccc(/C=C/C2=NN(c3cccc(S(=O)(=O)O)c3)C3(C2)SCC(=O)N3c2nc3ccccc3s2)cc1 (stereo not given),53.1 µM (inactive),> 100 µM (inactive),59 µM (inactive),17.3 µM (inactive),16.5 µM (inactive),–,31.3 µM (inactive),33.1 µM (inactive),> 100 µM (inactive),> 100 µM (inactive),19.5 µM (inactive),68.7 µM (inactive),22.8 µM (inactive),> 100 µM (inactive),> 100 µM (inactive),> 100 µM (inactive),> 100 µM (inactive),58.9 µM (inactive),> 100 µM (inactive)
Clc1c2ncccc2cc2nn[nH]c12,> 100 µM (inactive),74.5 µM (inactive),> 100 µM (inactive),17.3 µM (inactive),> 100 µM (inactive),41 µM (inactive),> 100 µM (inactive),–,> 100 µM (inactive),> 100 µM (inactive),23.3 µM (inactive),> 100 µM (inactive),> 100 µM (inactive),> 100 µM (inactive),> 100 µM (inactive),28.5 µM (inactive),> 100 µM (inactive),> 100 µM (inactive),79.3 µM (inactive)
